Source: the supplement of paper PMC10307832

Experiments:
Assay in all cases: relative viability (nuclei count vs DMSO), 5 days (fraction); higher = more cells survive
AZD1208 + Linsitinib = compound: N[C@@H]1CCCN(c2c(/C=C3\SC(=O)NC3=O)cccc2-c2ccccc2)C1 [AZD1208] + C[C@]1(O)C[C@@H](c2nc(-c3ccc4ccc(-c5ccccc5)nc4c3)c3c(N)nccn32)C1 [Linsitinib] (partner 1 µM)
How it was run: (§1)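 Relative viability equals treated-well nuclei counts divided by vehicle-well nuclei counts. Counts came from 4× images of lung cancer cell lines grown in 1536-well plates for 5 days after pin-tool dosing on the day after seeding. Dosing used one drug alone or a fixed anchor-drug dose plus five library-drug doses (not always all listed) in √10 steps, and values are medians of duplicate plates.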

AZD1208 + Olaparib = compound: N[C@@H]1CCCN(c2c(/C=C3\SC(=O)NC3=O)cccc2-c2ccccc2)C1 [AZD1208] + O=C(c1cc(Cc2n[nH]c(=O)c3ccccc23)ccc1F)N1CCN(C(=O)C2CC2)CC1 [Olaparib] (partner 8 µM)
How it was run: as §1

AZD1208 + Luminespib = compound: N[C@@H]1CCCN(c2c(/C=C3\SC(=O)NC3=O)cccc2-c2ccccc2)C1 [AZD1208] + CCNC(=O)c1noc(-c2cc(C(C)C)c(O)cc2O)c1-c1ccc(CN2CCOCC2)cc1 [Luminespib] (partner 0.01 µM)
How it was run: as §1

XMD14-99 + Vorinostat = compound: CN1CCN(CC1)C2=CC(=C(C=C2)NC3=NC(=C(S3)C(=O)C4=C(C=CC=C4Cl)Cl)N)OC [XMD14-99] + O=C(CCCCCCC(=O)Nc1ccccc1)NO [Vorinostat] (partner 1 µM)
How it was run: as §1

Cell Line | relative viability (AZD1208 + Linsitinib; first compound 0.08 µM) | relative viability (AZD1208 + Linsitinib; first compound 0.253 µM) | relative viability (AZD1208 + Linsitinib; first compound 0.8 µM) | relative viability (AZD1208 + Linsitinib; first compound 2.53 µM) | relative viability (AZD1208 + Linsitinib; first compound 8 µM) | relative viability (AZD1208 + Olaparib; first compound 0.08 µM) | relative viability (AZD1208 + Olaparib; first compound 0.253 µM) | relative viability (AZD1208 + Olaparib; first compound 0.8 µM) | relative viability (AZD1208 + Olaparib; first compound 2.53 µM) | relative viability (AZD1208 + Olaparib; first compound 8 µM) | relative viability (AZD1208 + Luminespib; first compound 0.08 µM) | relative viability (AZD1208 + Luminespib; first compound 0.253 µM) | relative viability (AZD1208 + Luminespib; first compound 0.8 µM) | relative viability (AZD1208 + Luminespib; first compound 2.53 µM) | relative viability (AZD1208 + Luminespib; first compound 8 µM) | relative viability (XMD14-99 + Vorinostat; first compound 0.08 µM) | relative viability (XMD14-99 + Vorinostat; first compound 0.8 µM) | relative viability (XMD14-99 + Vorinostat; first compound 2.53 µM) | relative viability (XMD14-99 + Vorinostat; first compound 8 µM)
NCI-H520 | 0.904 | 1.07 | 0.808 | 0.819 | 0.83 | 0.357 | 0.278 | 0.271 | 0.287 | 0.252 | 0.253 | 0.246 | 0.212 | 0.201 | 0.207 | 0.686 | 0.635 | 0.658 | 0.454
EKVX | 0.996 | 1.19 | 0.917 | 0.87 | 1.11 | 0.793 | 0.941 | 0.811 | 0.829 | 0.821 | 0.981 | 0.845 | 0.888 | 0.804 | 0.924 | 0.701 | 0.714 | 0.655 | 0.493
NCI-H358 | 0.675 | 0.604 | 0.564 | 0.71 | 0.605 | 0.636 | 0.515 | 0.501 | 0.544 | 0.525 | 0.38 | 0.307 | 0.514 | 0.319 | 0.122 | 0.686 | 0.653 | 0.553 | 0.309
EPLC-272H | 1.31 | 1.17 | 0.995 | 1.21 | 1.09 | 0.647 | 0.773 | 0.906 | 0.687 | 0.656 | 0.276 | 0.557 | 0.288 | 0.219 | 0.215 | 0.476 | 0.399 | 0.401 | 0.419
NCI-H1395 | 0.989 | 1.15 | 0.979 | 1.07 | 0.881 | 0.479 | 0.432 | 0.406 | 0.421 | 0.381 | 0.705 | 0.784 | 0.608 | 0.539 | 0.553 | 0.889 | 0.891 | 0.761 | 0.527
NCI-H2228 | 0.493 | 0.596 | 0.546 | – | 0.356 | 0.557 | 0.754 | 0.584 | 0.527 | 0.673 | 0.162 | 0.112 | 0.125 | 0.136 | 0.163 | 0.719 | 0.683 | 0.727 | 0.33
LXF-289 | 0.982 | 1.01 | 0.966 | 1.01 | 1.01 | 1.03 | 1.23 | 1.06 | 1.03 | 1.01 | 0.601 | 0.584 | 0.659 | 0.607 | 0.527 | 0.754 | 0.696 | 0.726 | 0.738
NCI-H2023 | 0.651 | 0.56 | 0.576 | 0.633 | 0.568 | 0.473 | 0.51 | 0.416 | 0.44 | 0.366 | 0.677 | 0.75 | 0.588 | 0.597 | 0.416 | 0.572 | 0.648 | 0.732 | 0.363
NCI-H3122 | 1.09 | 1.03 | 1.03 | 1.02 | 1.08 | 0.691 | 0.677 | 0.615 | 0.608 | 0.691 | 0.0933 | 0.129 | 0.0763 | 0.0991 | 0.0841 | 0.962 | 0.991 | 0.923 | 0.707
NCI-H1755 | 0.993 | 0.995 | 0.913 | 0.998 | 0.95 | 0.835 | 0.83 | 0.841 | 0.849 | 0.66 | 0.357 | 0.282 | 0.494 | 0.565 | 0.269 | 0.661 | 0.742 | 0.686 | 0.608
LOU-NH91 | 0.953 | 0.934 | 0.855 | 0.949 | 0.822 | 0.905 | 0.943 | 0.876 | 0.907 | 0.883 | 0.34 | 0.342 | 0.365 | 0.313 | 0.322 | 0.947 | 1.03 | 0.805 | 0.725
NCI-H322M | 0.954 | 0.98 | 0.828 | 0.829 | 0.84 | 0.762 | 0.799 | – | 0.726 | 0.834 | 0.784 | 0.767 | 0.794 | 0.803 | 0.88 | 0.862 | 0.965 | 0.852 | 0.746
HCC-827 | 0.965 | 1.03 | 1.01 | 1.01 | 1.02 | 0.623 | 0.669 | 0.389 | 0.641 | 0.338 | 0.735 | 0.677 | 0.307 | 0.373 | 0.408 | 0.929 | 0.571 | 0.74 | 0.701
SW 1573 | 0.725 | 0.637 | 0.745 | 0.656 | 0.534 | 0.417 | 0.499 | 0.336 | 0.445 | 0.406 | 0.292 | 0.429 | 0.198 | 0.152 | 0.208 | 0.833 | 0.765 | 0.756 | 0.631
NCI-H1975 | 0.991 | 1 | 0.911 | 0.981 | 0.975 | 0.734 | 0.755 | 0.766 | 0.883 | 0.793 | 0.235 | 0.296 | 0.2 | 0.228 | 0.18 | 0.675 | 0.673 | 0.612 | 0.475
NCI-H1651 | 0.912 | 0.619 | 0.758 | 0.852 | 0.83 | 0.198 | 0.186 | – | 0.172 | 0.172 | 0.902 | 0.977 | 0.848 | 0.795 | 0.568 | 0.614 | 0.487 | 0.534 | 0.448
NCI-H460 | 0.724 | 0.843 | 0.817 | 0.711 | 0.539 | 0.474 | 0.43 | 0.407 | 0.431 | 0.443 | 0.0309 | 0.0217 | 0.0281 | 0.0375 | 0.0205 | 0.735 | 0.693 | 0.625 | 0.49
